According to US20250325562A1, “Intravenous Ganaxolone Formulations and Methods of Use in Treating Status Epilepticus and Other Seizure Disorders” (MARINUS PHARMACEUTICALS, INC., priority 2015, published 2025):

Test system: pilocarpine induced status epilepticus (SE)
Experiment: Pilocarpine-induced status epilepticus in rats, cortical EEG power
Format: in vivo, Male Sprague-Dawley rats
Parameters: key to Treatment effect on EEG power vs vehicle, significance: * P < 0.05; ** P < 0.01; *** P < 0.001; **** P < 0.0001; ns = not significant
Method: This study was designed to determine the ability of a CAPTISOL-ganaxolone (GNX) formulation administered intravenously (IV) at 12 and 15 mg/kg to inhibit pilocarpine induced status epilepticus (SE). Allopregnanolone (Allo) (15 mg/kg; IV) was also evaluated for comparison. In this study, test drugs were administered either 15 or 60 minutes after onset of SE and compared to vehicle (30% Captisol).
Cortical EEG activity was recorded in rats before and after administration of pilocarpine to induce SE. Animals were pre-treated with LiCl to enhance and improve reliability of seizure induction and scopolamine to reduce peripheral cholinergic side effects of pilocarpine. EEG activity was recorded for 5 h after SE onset, and anticonvulsant activity was assessed by determining changes in EEG power over frequency ranges from 0.3 to 96 Hz.
Male Sprague-Dawley rats were used for the studies. Rats were surgically implanted with EEG electrodes and jugular vein catheters. The mean weight at the time of recording was 321+3 g (269-351 g).
EEG electrodes were surgically implanted in anesthetized rats. Animals were also treated with an anti-inflammatory anaelgesic (RIMADYL, (carprofen)) prior to surgery and a subcutaneous local anesthetic. Stainless steel screw electrodes chronically were implanted in the skull (0-80×¼″, Plastics-One, Roanoke, VA) such that the ends of the screws were flush with the inner skull surface. One electrode was located 3.0 mm anterior to bregma and 2 mm to the left of midline, and the second 4.0 mm posterior to bregma and 2.5 mm to the right of midline. The skull surface around the electrodes was sealed with super glue and dental acrylic, and the EEG electrode lead wires were inserted into a plastic pedestal mounted on the skull using dental acrylic. Wound edges were treated with triple antibiotic cream (bacitracin zinc, neomycin sulfate, polymyxin B sulfate; Walgreens). Following surgery, animals were administered antibiotic (ampicillin, 50 mg/kg IP at 0.4 mL/kg) and also received a chewable dose (˜10 mg) of Rimadyl following surgery. The animals were allowed to recover from EEG surgery for 1 week.
Rats were implanted with jugular-vein catheters (JVC) one week following EEG surgery. Rats were administered an anti-inflammatory/analgesic and then anesthetized and placed in a supine position. An incision was made in the skin on the right ventrolateral aspect of the neck to expose the external jugular vein which was then dissected free of surrounding fascia. A ligature was tied around the vein anteriorly to occlude blood flow returning to the heart. A second ligature was loosely tied around the vein posteriorly to create tension on the vessel during venotomy and catheter insertion. After incising the vein, a PE catheter (3Fr) was inserted into the vein and advanced approximately 30 mm towards the heart, positioning the tip at the junction of the precava and right atrium. After confirming patency of the catheter by blood withdrawal, the posterior ligature was tied off, and the catheter flushed with a “heparin-lock” solution (5 units heparin/ml saline) and plugged with a sterilized stainless steel pin. The catheter was then exteriorized by tunneling through the subcutaneous tissue to exit posterior to the head between the shoulder blades. Lastly, after suturing the catheter to the skin, all wounds were closed using sutures or wound clips. Immediately following surgery, the animals were awakened to assess catheter patency. Animals also received a chewable dose (˜10 mg) of Rimadyl following surgery to minimize pain and inflammation.
Animals were allowed a 1-week recovery time following JVC surgery. Jugular vein catheters were flushed daily with a 0.1 mL of heparin solution (5 units/mL) to maintain patency. On the day of surgery, the flushing solution contained ampicillin sulbactam (50 mg/kg). […]

CC(=O)[C@H]1CC[C@H]2[C@@H]3CC[C@H]4C[C@](C)(O)CC[C@]4(C)[C@H]3CC[C@]12C [Ganaxolone, 3α-hydroxy, 3β-methyl-5α-pregnan-20-one]
Treatment effect on EEG power vs vehicle, significance (12 mg/kg IV, 60 min post SE onset, 10-30 Hz, 3-5 hrs post drug): ns | Treatment effect on EEG power vs vehicle, significance (12 mg/kg IV, 60 min post SE onset, 10-30 Hz, 15-30 min post drug): ** (** P < 0.01) | Treatment effect on EEG power vs vehicle, significance (12 mg/kg IV, 60 min post SE onset, 10-30 Hz, 30-60 min post drug): ** (** P < 0.01) | Treatment effect on EEG power vs vehicle, significance (12 mg/kg IV, 60 min post SE onset, 30-50 Hz, 0-15 min. post drug): ns | Treatment effect on EEG power vs vehicle, significance (12 mg/kg IV, 60 min post SE onset, 30-50 Hz, 1-2 hrs post drug): ** (** P < 0.01) | Treatment effect on EEG power vs vehicle, significance (12 mg/kg IV, 60 min post SE onset, 30-50 Hz, 2-3 hrs post drug): * (* P < 0.05) | Treatment effect on EEG power vs vehicle, significance (12 mg/kg IV, 60 min post SE onset, 30-50 Hz, 3-5 hrs post drug): ns | Treatment effect on EEG power vs vehicle, significance (12 mg/kg IV, 60 min post SE onset, 30-50 Hz, 15-30 min post drug): ns | Treatment effect on EEG power vs vehicle, significance (12 mg/kg IV, 60 min post SE onset, 30-50 Hz, 30-60 min post drug): * (* P < 0.05) | Treatment effect on EEG power vs vehicle, significance (12 mg/kg IV, 60 min post SE onset, 50-70 Hz, 0-15 min. post drug): ns | Treatment effect on EEG power vs vehicle, significance (12 mg/kg IV, 60 min post SE onset, 50-70 Hz, 1-2 hrs post drug): ** (** P < 0.01) | Treatment effect on EEG power vs vehicle, significance (12 mg/kg IV, 60 min post SE onset, 50-70 Hz, 15-30 min post drug): * (* P < 0.05) | Treatment effect on EEG power vs vehicle, significance (12 mg/kg IV, 60 min post SE onset, 50-70 Hz, 30-60 min post drug): ** (** P < 0.01) | Treatment effect on EEG power vs vehicle, significance (15 mg/kg IV, 15 min post SE onset, 0-5 Hz, 0-15 min. post drug): **** (**** P < 0.0001) | Treatment effect on EEG power vs vehicle, significance (15 mg/kg IV, 15 min post SE onset, 0-5 Hz, 1-2 hrs post drug): **** (**** P < 0.0001) | Treatment effect on EEG power vs vehicle, significance (15 mg/kg IV, 15 min post SE onset, 0-5 Hz, 2-3 hrs post drug): **** (**** P < 0.0001) | Treatment effect on EEG power vs vehicle, significance (15 mg/kg IV, 15 min post SE onset, 0-5 Hz, 3-5 hrs post drug): *** (*** P < 0.001) | Treatment effect on EEG power vs vehicle, significance (15 mg/kg IV, 15 min post SE onset, 0-5 Hz, 15-30 min post drug): **** (**** P < 0.0001) | Treatment effect on EEG power vs vehicle, significance (15 mg/kg IV, 15 min post SE onset, 0-5 Hz, 30-60 min post drug): **** (**** P < 0.0001) | Treatment effect on EEG power vs vehicle, significance (15 mg/kg IV, 15 min post SE onset, 5-10 Hz, 0-15 min. post drug): **** (**** P < 0.0001) | Treatment effect on EEG power vs vehicle, significance (15 mg/kg IV, 15 min post SE onset, 5-10 Hz, 1-2 hrs post drug): **** (**** P < 0.0001) | Treatment effect on EEG power vs vehicle, significance (15 mg/kg IV, 15 min post SE onset, 5-10 Hz, 2-3 hrs post drug): *** (*** P < 0.001) | Treatment effect on EEG power vs vehicle, significance (15 mg/kg IV, 15 min post SE onset, 5-10 Hz, 3-5 hrs post drug): ns | Treatment effect on EEG power vs vehicle, significance (15 mg/kg IV, 15 min post SE onset, 5-10 Hz, 15-30 min post drug): **** (**** P < 0.0001) | Treatment effect on EEG power vs vehicle, significance (15 mg/kg IV, 15 min post SE onset, 5-10 Hz, 30-60 min post drug): **** (**** P < 0.0001) | Treatment effect on EEG power vs vehicle, significance (15 mg/kg IV, 15 min post SE onset, 10-30 Hz, 0-15 min. post drug): **** (**** P < 0.0001) | Treatment effect on EEG power vs vehicle, significance (15 mg/kg IV, 15 min post SE onset, 10-30 Hz, 1-2 hrs post drug): ** (** P < 0.01) | Treatment effect on EEG power vs vehicle, significance (15 mg/kg IV, 15 min post SE onset, 10-30 Hz, 2-3 hrs post drug): * (* P < 0.05) | Treatment effect on EEG power vs vehicle, significance (15 mg/kg IV, 15 min post SE onset, 10-30 Hz, 3-5 hrs post drug): ns | Treatment effect on EEG power vs vehicle, significance (15 mg/kg IV, 15 min post SE onset, 10-30 Hz, 15-30 min post drug): **** (**** P < 0.0001) | Treatment effect on EEG power vs vehicle, significance (15 mg/kg IV, 15 min post SE onset, 10-30 Hz, 30-60 min post drug): **** (**** P < 0.0001) | Treatment effect on EEG power vs vehicle, significance (15 mg/kg IV, 15 min post SE onset, 30-50 Hz, 0-15 min. post drug): *** (*** P < 0.001) | Treatment effect on EEG power vs vehicle, significance (15 mg/kg IV, 15 min post SE onset, 30-50 Hz, 1-2 hrs post drug): ** (** P < 0.01) | Treatment effect on EEG power vs vehicle, significance (15 mg/kg IV, 15 min post SE onset, 30-50 Hz, 2-3 hrs post drug): ns | Treatment effect on EEG power vs vehicle, significance (15 mg/kg IV, 15 min post SE onset, 30-50 Hz, 3-5 hrs post drug): ns | Treatment effect on EEG power vs vehicle, significance (15 mg/kg IV, 15 min post SE onset, 30-50 Hz, 15-30 min post drug): *** (*** P < 0.001) | Treatment effect on EEG power vs vehicle, significance (15 mg/kg IV, 15 min post SE onset, 30-50 Hz, 30-60 min post drug): *** (*** P < 0.001) | Treatment effect on EEG power vs vehicle, significance (15 mg/kg IV, 15 min post SE onset, 50-70 Hz, 0-15 min. post drug): ** (** P < 0.01) | Treatment effect on EEG power vs vehicle, significance (15 mg/kg IV, 15 min post SE onset, 50-70 Hz, 1-2 hrs post drug): ** (** P < 0.01) | Treatment effect on EEG power vs vehicle, significance (15 mg/kg IV, 15 min post SE onset, 50-70 Hz, 2-3 hrs post drug): ns | Treatment effect on EEG power vs vehicle, significance (15 mg/kg IV, 15 min post SE onset, 50-70 Hz, 3-5 hrs post drug): ns | Treatment effect on EEG power vs vehicle, significance (15 mg/kg IV, 15 min post SE onset, 50-70 Hz, 15-30 min post drug): ** (** P < 0.01) | Treatment effect on EEG power vs vehicle, significance (15 mg/kg IV, 15 min post SE onset, 50-70 Hz, 30-60 min post drug): ** (** P < 0.01) | Treatment effect on EEG power vs vehicle, significance (15 mg/kg IV, 15 min post SE onset, 70-96 Hz, 0-15 min. post drug): ** (** P < 0.01) | Treatment effect on EEG power vs vehicle, significance (15 mg/kg IV, 15 min post SE onset, 70-96 Hz, 1-2 hrs post drug): ** (** P < 0.01) | Treatment effect on EEG power vs vehicle, significance (15 mg/kg IV, 15 min post SE onset, 70-96 Hz, 2-3 hrs post drug): ns | Treatment effect on EEG power vs vehicle, significance (15 mg/kg IV, 15 min post SE onset, 70-96 Hz, 3-5 hrs post drug): ns | Treatment effect on EEG power vs vehicle, significance (15 mg/kg IV, 15 min post SE onset, 70-96 Hz, 15-30 min post drug): *** (*** P < 0.001) | Treatment effect on EEG power vs vehicle, significance (15 mg/kg IV, 15 min post SE onset, 70-96 Hz, 30-60 min post drug): ** (** P < 0.01) | reduction in SE amplitude (12 and 15 mg/kg IV): very strong reduction in SE amplitude overall | EEG power (dosed 15 minutes after SE-onset): reduced EEG power across all frequency ranges to levels at or below baseline for at up to 5 h | EEG power (dosed at 60′ post SE-onset, not below baseline up to 70 Hz): strongly reduced
